These are literature values, as cited in patent US12324827B2, “Combination therapy for the treatment of migraines” (The University of Chicago, priority 2019, dated 2025).

One data set relates to spreading depression. The note with it: SD from KCl; pretreatment; cited from earlier work.
For data set [1], the system named is trigeminal system neurons. The note with it: in vivo; cited from earlier work.

Take `CC1(C)O[C@@H]2[C@@H](CO[C@@]3(COS(N)(=O)=O)OC(C)(C)O[C@@H]23)O1` [topiramate, reference compound]: the “protection against SD over sham treatment” value with spreading depression is recorded as “no more than a two-fold level of protection”.
For the compound “TEV-48125: CGRP-mAb fremanezumab, humanized monoclonal anti-CGRP antibody”, in data set [1], the “CSD-based activation of Aδ fibers and C-fiber afferents in the trigeminal ganglion” value is “reduce CSD-based activation of Aδ fibers but not activation of C-fiber afferents”; the “activation and sensitization of high threshold trigeminal system neurons after CSD” value is “inhibited activation and sensitization”; the “direct inhibition of CSD” value is listed as “did not directly inhibit CSD”; the “wide dynamic range neurons of the caudal trigeminal nucleus” value was “had no effect”.
